According to patent publication US20060111271A1 (priority 2004, published 2006):
Like-named read-outs stand apart in the source and are kept apart here.

Assays:
anti-nicotine antibodies = format: binding
[1] = five BSA digoxin immunised rabbits, cited from earlier work
[2] = liver, cited from earlier work
[3] = antibodies elicited by Nic-O-Su-Cholera Toxin B conjugates, relative to nicotine

In the case of CN1C(=O)C[C@@H](C(=O)O)[C@@H]1c1cccnc1 (relative stereo) [trans-4-cotininecarboxylic acid], the immunologic cross-reactivity (anti-nicotine antibodies; [3]) was 0.19%.

In the case of C[C@H]1O[C@@H](O[C@H]2[C@@H](O)C[C@H](O[C@H]3[C@@H](O)C[C@H](O[C@H]4CC[C@@]5(C)[C@H](CC[C@@H]6[C@@H]5C[C@@H](O)[C@]5(C)[C@@H](C7=CC(=O)OC7)CC[C@]65O)C4)O[C@@H]3C)O[C@@H]2C)C[C@H](O)[C@@H]1O [digoxin], the “mean serum concentration of digoxin” value ([1]; at one year) is listed as 85 nanogram/ml and the “mean serum concentration of digoxin” value ([1]; initially) is listed as 8200 nanogram/ml.

For CN1CCCC1c1cccnc1 (centres unmarked) [nicotine], the “nicotine transformed to nicotine N'-oxide” value ([2]; flavin containing monooxygenase 3) is given as 4-7% and the “nicotine glucuronidation, share of metabolized nicotine” value ([2]; uridine diphosphate-glucuronosyltransferase) is given as 3-5%.

CN1C(=O)CC[C@H]1c1cccnc1 [cotinine] showed an immunologic cross-reactivity (anti-nicotine antibodies; [3]) of 1.1%.

Compound O=C(O)c1cccnc1 [nicotinic acid] has an immunologic cross-reactivity (anti-nicotine antibodies) of 0.09%.

c1cncc([C@@H]2CCCN2)c1 [nornicotine] gave an immunologic cross-reactivity (anti-nicotine antibodies; [3]) of 4%.
